# Laboratory results reported in ChEMBL document CHEMBL3885881, “DrugMatrix”.
# Species on record: Rattus norvegicus
# Test: DrugMatrix - Regimen: Daily Repeat
# Assay type: toxicity, organism-based, Sprague-Dawley
# Design: regimen Daily Repeat, gender Male, age 6-8 weeks
# Details: in vivo, po, 0 mg/kg, route oral GAVAGE, dose level Control, vehicle 100 % WATER; for BASOPHIL / EOSINOPHIL / ERYTHROCYTE COUNT / HEMATOCRIT / HEMOGLOBIN / LEUKOCYTE COUNT / LYMPHOCYTE / MEAN CORPUSCULAR HEMOGLOBIN / MEAN CORPUSCULAR HEMOGLOBIN CONCENTRATION / MEAN CORPUSCULAR VOLUME / MONOCYTE / NEUTROPHIL / PLATELET COUNT: tissue Blood; for ALANINE AMINOTRANSFERASE / ALBUMIN / ALKALINE PHOSPHATASE / ASPARTATE AMINOTRANSFERASE / BLOOD UREA NITROGEN / CARBON DIOXIDE / CHLORIDE / CHOLESTEROL / CREATINE PHOSPHOKINASE / CREATININE / GLUCOSE / LACTATE DEHYDROGENASE / LIPASE / PHOSPHORUS / POTASSIUM / SODIUM / TOTAL BILIRUBIN / TOTAL PROTEIN / URIC ACID: tissue Plasma
structure (smiles),measurement,setting,value
OCC1CO1 (stereo unspecified) [GLYCIDOL],BASOPHIL,"96 h, time 4 day",0.47%
same,EOSINOPHIL,"96 h, time 4 day",0.58%
same,ERYTHROCYTE COUNT,"96 h, time 4 day",6.84 x10E6/uL
same,HEMATOCRIT,"96 h, time 4 day",44.27%
same,HEMOGLOBIN,"96 h, time 4 day",14.08 G/DL
same,LEUKOCYTE COUNT,"96 h, time 4 day",13.39 x10E3/uL
same,LYMPHOCYTE,"96 h, time 4 day",83.57%
same,MEAN CORPUSCULAR HEMOGLOBIN,"96 h, time 4 day",20.57 pg
same,MEAN CORPUSCULAR HEMOGLOBIN CONCENTRATION,"96 h, time 4 day",31.77 G/DL
same,MEAN CORPUSCULAR VOLUME,"96 h, time 4 day",64.68 fL
same,MONOCYTE,"96 h, time 4 day",1.92%
same,NEUTROPHIL,"96 h, time 4 day",12.95%
same,PLATELET COUNT,"96 h, time 4 day",1533.67 x10E3/uL
same,ALANINE AMINOTRANSFERASE,"96 h, time 4 day",28.17 u/L
same,ALBUMIN,"96 h, time 4 day",3.82 G/DL
same,ALKALINE PHOSPHATASE,"96 h, time 4 day",354.33 u/L
same,ASPARTATE AMINOTRANSFERASE,"96 h, time 4 day",73.83 u/L
same,BLOOD UREA NITROGEN,"96 h, time 4 day",16 mg/dL
same,CARBON DIOXIDE,"96 h, time 4 day",27.17 mmol/L
same,CHLORIDE,"96 h, time 4 day",104.83 MEQ/L
same,CHOLESTEROL,"96 h, time 4 day",83.33 mg/dL
same,CREATINE PHOSPHOKINASE,"96 h, time 4 day",288 u/L
same,CREATININE,"96 h, time 4 day",0.33 mg/dL
same,GLUCOSE,"96 h, time 4 day",181.33 mg/dL
same,LACTATE DEHYDROGENASE,"96 h, time 4 day",173.17 u/L
same,LIPASE,"96 h, time 4 day",17.67 u/L
same,PHOSPHORUS,"96 h, time 4 day",11.5 mg/dL
same,POTASSIUM,"96 h, time 4 day",6.8 MEQ/L
same,SODIUM,"96 h, time 4 day",147 MEQ/L
same,TOTAL BILIRUBIN,"96 h, time 4 day",0.35 mg/dL
same,TOTAL PROTEIN,"96 h, time 4 day",6.35 G/DL
same,URIC ACID,"96 h, time 4 day",1.55 mg/dL
same,BASOPHIL,"[…], time 6 day",0.33%
same,EOSINOPHIL,"[…], time 6 day",0.85%
same,ERYTHROCYTE COUNT,"[…], time 6 day",6.98 x10E6/uL
same,HEMATOCRIT,"[…], time 6 day",38.58%
same,HEMOGLOBIN,"[…], time 6 day",14.25 G/DL
same,LEUKOCYTE COUNT,"[…], time 6 day",11.01 x10E3/uL
same,LYMPHOCYTE,"[…], time 6 day",85.07%
same,MEAN CORPUSCULAR HEMOGLOBIN,"[…], time 6 day",20.47 pg
same,MEAN CORPUSCULAR HEMOGLOBIN CONCENTRATION,"[…], time 6 day",31.45 G/DL
same,MEAN CORPUSCULAR VOLUME,"[…], time 6 day",64.9 fL
same,MONOCYTE,"[…], time 6 day",1.9%
same,NEUTROPHIL,"[…], time 6 day",11.42%
same,PLATELET COUNT,"[…], time 6 day",1289.67 x10E3/uL
same,BASOPHIL,"[…], time 14 day",0.52%
same,EOSINOPHIL,"[…], time 14 day",0.55%
same,ERYTHROCYTE COUNT,"[…], time 14 day",7.72 x10E6/uL
same,HEMATOCRIT,"[…], time 14 day",51.87%
same,HEMOGLOBIN,"[…], time 14 day",15.32 G/DL
same,LEUKOCYTE COUNT,"[…], time 14 day",16.2 x10E3/uL
same,LYMPHOCYTE,"[…], time 14 day",85.13%
same,MEAN CORPUSCULAR HEMOGLOBIN,"[…], time 14 day",19.85 pg
same,MEAN CORPUSCULAR HEMOGLOBIN CONCENTRATION,"[…], time 14 day",29.52 G/DL
same,MEAN CORPUSCULAR VOLUME,"[…], time 14 day",67.17 fL
same,MONOCYTE,"[…], time 14 day",1.7%
same,NEUTROPHIL,"[…], time 14 day",11.6%
same,PLATELET COUNT,"[…], time 14 day",1104.17 x10E3/uL
same,ALANINE AMINOTRANSFERASE,"[…], time 6 day",28.17 u/L
same,ALBUMIN,"[…], time 6 day",3.78 G/DL
same,ALKALINE PHOSPHATASE,"[…], time 6 day",385.33 u/L
same,ASPARTATE AMINOTRANSFERASE,"[…], time 6 day",78 u/L
same,BLOOD UREA NITROGEN,"[…], time 6 day",16.83 mg/dL
same,CARBON DIOXIDE,"[…], time 6 day",26.67 mmol/L
same,CHLORIDE,"[…], time 6 day",106.83 MEQ/L
same,CHOLESTEROL,"[…], time 6 day",82.67 mg/dL
same,CREATINE PHOSPHOKINASE,"[…], time 6 day",225.5 u/L
same,CREATININE,"[…], time 6 day",0.27 mg/dL
same,GLUCOSE,"[…], time 6 day",179.5 mg/dL
same,LACTATE DEHYDROGENASE,"[…], time 6 day",98.33 u/L
same,LIPASE,"[…], time 6 day",14.67 u/L
same,PHOSPHORUS,"[…], time 6 day",12.28 mg/dL
same,POTASSIUM,"[…], time 6 day",7.03 MEQ/L
same,SODIUM,"[…], time 6 day",150.33 MEQ/L
same,TOTAL BILIRUBIN,"[…], time 6 day",0.38 mg/dL
same,TOTAL PROTEIN,"[…], time 6 day",6.45 G/DL
same,URIC ACID,"[…], time 6 day",1.6 mg/dL
same,ALANINE AMINOTRANSFERASE,"[…], time 14 day",37 u/L
same,ALBUMIN,"[…], time 14 day",4.13 G/DL
same,ALKALINE PHOSPHATASE,"[…], time 14 day",342 u/L
same,ASPARTATE AMINOTRANSFERASE,"[…], time 14 day",71 u/L
same,BLOOD UREA NITROGEN,"[…], time 14 day",16.5 mg/dL
same,CARBON DIOXIDE,"[…], time 14 day",28.17 mmol/L
same,CHLORIDE,"[…], time 14 day",104 MEQ/L
same,CHOLESTEROL,"[…], time 14 day",70.67 mg/dL
same,CREATINE PHOSPHOKINASE,"[…], time 14 day",287.67 u/L
same,CREATININE,"[…], time 14 day",0.38 mg/dL
same,GLUCOSE,"[…], time 14 day",150.17 mg/dL
same,LACTATE DEHYDROGENASE,"[…], time 14 day",81.33 u/L
same,LIPASE,"[…], time 14 day",16 u/L
same,PHOSPHORUS,"[…], time 14 day",11.32 mg/dL
same,POTASSIUM,"[…], time 14 day",6.22 MEQ/L
same,SODIUM,"[…], time 14 day",147.33 MEQ/L
same,TOTAL BILIRUBIN,"[…], time 14 day",0.43 mg/dL
same,TOTAL PROTEIN,"[…], time 14 day",6.55 G/DL
same,URIC ACID,"[…], time 14 day",1.38 mg/dL
